Source: article PMC8844822, “SARM1 is a multi-functional NAD(P)ase with prominent base exchange activity, all regulated bymultiple physiologically relevant NAD metabolites” (iScience, 2022)
Read-outs that look alike come from different tables or passages of the source.

How the values were obtained:
[1] = target: T1, Aplysia californica ADP ribosyl cyclase (Aplysia californica, UniProt P29241); assay: Base exchange reactions at neutral pH (HPLC); assay type: biochemical; design: purchased Merck A8950; settings: NAD […] alone or + AcPyr 2 mM / Vacor 0.5 mM / Na 2 mM
T1 sequence (P29241 25-282): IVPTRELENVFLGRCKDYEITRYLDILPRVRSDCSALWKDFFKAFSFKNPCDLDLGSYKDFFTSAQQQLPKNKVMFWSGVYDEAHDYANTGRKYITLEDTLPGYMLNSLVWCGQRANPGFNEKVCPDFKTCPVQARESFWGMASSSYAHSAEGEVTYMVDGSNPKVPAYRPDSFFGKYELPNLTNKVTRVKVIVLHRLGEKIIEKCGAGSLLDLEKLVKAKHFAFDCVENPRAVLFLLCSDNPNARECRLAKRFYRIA
Description: (§1) Multiple time stops from individual assays as above were analyzed for linearity, then extents of hydrolysis (white bars), cyclization (red bars), or base exchange (black bars) were calculated from each corresponding product as shown in Figure 1B and STAR methods. […] See also Figures S3–S5, and Table S1
(§2) Rates were calculated as follows.

[2] = target: T1, Aplysia californica ADP ribosyl cyclase
Description: (§3) hSARM1 species were routinely assayed by the NAD/NADH-Glo^TM Assay (Promega) while both Aplysia cyclase and CD38 were assayed by fluorometry using ϵNAD ([Orsomando et al., 2000]). […] Other reagents used in addition to, or in place of those above are detailed in text or in figure legends, for example metal ions, free bases, dinucleotide analogues, mononucleotides, and ribosides. Assays were all carried out at 25°C except for temperature studies. Reactions were stopped by HClO4/K2CO3 and analysed by C18-HPLC as reported ([Mori et al., 2014]). Only the acid labile NADH and NADPH were treated with 1 N NaOH and neutralized using 1:1 vol of 1.73 M KH2CO3 while the highly hydrophobic metabolites vacor, VAD, VMN and VR, were analysed by a modified C18-HPLC method ([Buonvicino et al., 2018]). Reaction products were quantified from peak areas (see Figure 2A) based on coelution with standards (except for cyclic products from NAD analogues that were not available and were attributed based on UV-spectra and retention times as predicted). Rates were calculated as follows. Hydrolysis and cyclization were measured from product generation from the respective individual dinucleotide substrate used, e.g., free and cyclic ADP-ribosyl moieties from NAD (Figure 1B). A basal value for hydrolysis/cyclization was taken as sum of these latter two products. In addition to that value, base exchange or transglycosidation was calculated from the expected dinucleotide analog formed in the presence of the corresponding free base, e.g., AcPyrAD from AcPyr and NAD.
(§4) The kinetic parameters were calculated from initial rates obtained from replicates via best-fitting analysis using the following Equation 1 for CD38 and Aplysia cyclase, or Equation 2 for hSARM1 SAM-TIR, or Equation 3 for hSARM1 full length(Equation 1) V =Vmax[S]/Km+[S] […] In that case, the resulting single curves were fit to Equation 3 as above to evaluate any competition between NMN and the substrate used (see Table 1).

hCD38 [3] = target: T2, hCD38 (Homo sapiens, UniProt P28907); assay: NAD(P)ase activity by HPLC (kinetics, substrates, metal ions); assay type: biochemical
T2 construct: a soluble fragment Val43-Ile300 with 6x-His tag at C terminus; 6xHis (C); purchased R&D Systems
T2 sequence (P28907 43-300): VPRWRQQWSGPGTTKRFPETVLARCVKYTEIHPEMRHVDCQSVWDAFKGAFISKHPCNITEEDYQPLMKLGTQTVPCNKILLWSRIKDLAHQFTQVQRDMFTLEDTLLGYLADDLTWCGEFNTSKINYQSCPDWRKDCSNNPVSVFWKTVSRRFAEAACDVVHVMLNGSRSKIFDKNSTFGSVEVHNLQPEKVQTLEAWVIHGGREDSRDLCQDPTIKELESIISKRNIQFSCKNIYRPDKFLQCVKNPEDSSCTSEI
Description: as §3, §4

hSARM1 full length [4] = target: T3, hSARM1 full length (Homo sapiens, UniProt Q6SZW1); assay: as above; assay type: biochemical; settings: for basal rate: substrate alone […]
T3 construct: Human recombinant SARM1 full length proteins (wild-type and E642A mutant); made in house
T3 sequence (Q6SZW1 28-724): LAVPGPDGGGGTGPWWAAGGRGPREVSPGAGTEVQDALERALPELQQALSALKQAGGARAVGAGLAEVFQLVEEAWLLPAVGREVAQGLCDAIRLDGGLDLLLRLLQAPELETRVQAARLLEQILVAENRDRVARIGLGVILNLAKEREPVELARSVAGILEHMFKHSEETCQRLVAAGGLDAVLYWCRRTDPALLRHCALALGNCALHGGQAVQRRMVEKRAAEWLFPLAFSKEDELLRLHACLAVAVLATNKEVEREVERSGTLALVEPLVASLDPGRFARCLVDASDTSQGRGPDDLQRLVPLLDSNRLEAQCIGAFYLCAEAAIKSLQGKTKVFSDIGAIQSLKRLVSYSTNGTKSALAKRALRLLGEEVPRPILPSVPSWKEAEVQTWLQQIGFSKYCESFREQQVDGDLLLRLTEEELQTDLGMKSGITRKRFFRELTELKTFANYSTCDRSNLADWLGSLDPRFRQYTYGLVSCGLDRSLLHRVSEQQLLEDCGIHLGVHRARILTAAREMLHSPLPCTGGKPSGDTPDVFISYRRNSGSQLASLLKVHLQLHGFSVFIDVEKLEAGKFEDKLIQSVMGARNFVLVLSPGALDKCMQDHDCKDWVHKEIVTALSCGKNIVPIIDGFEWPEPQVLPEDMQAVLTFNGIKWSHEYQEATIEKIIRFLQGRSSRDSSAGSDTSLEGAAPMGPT
Description: as §3, §4

hSARM1 SAM-TIR [5] = target: T4, hSARM1 SAM-TIR (Homo sapiens, UniProt Q6SZW1); assay: Base exchange reactions at neutral pH (HPLC); assay type: biochemical; settings: NAD […] alone or + AcPyr 2 mM / Vacor 0.5 mM / Na 2 mM
T4 construct: made in house
T4 sequence (Q6SZW1 409-724): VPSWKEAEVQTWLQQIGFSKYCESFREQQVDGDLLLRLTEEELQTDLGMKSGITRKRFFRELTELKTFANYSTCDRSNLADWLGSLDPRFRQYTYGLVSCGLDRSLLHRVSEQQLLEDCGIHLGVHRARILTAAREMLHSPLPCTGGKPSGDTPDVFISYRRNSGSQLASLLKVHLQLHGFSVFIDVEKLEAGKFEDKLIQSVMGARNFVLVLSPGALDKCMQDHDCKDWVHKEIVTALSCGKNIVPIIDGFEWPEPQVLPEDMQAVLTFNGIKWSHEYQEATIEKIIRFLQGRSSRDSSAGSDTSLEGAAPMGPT
Description: as §1, §2

hSARM1 SAM-TIR [6] = target: T4, hSARM1 SAM-TIR; assay type: biochemical
Description: as §3, with “In addition to that value, base exchange or transglycosidation was calculated from the expected dinucleotide analog formed in the presence of the corresponding free base, e.g., AcPyrAD from AcPyr and NAD.” left out

hCD38 [7] = target: T2, hCD38; assay: Base exchange reactions at neutral pH (HPLC); assay type: biochemical; settings: NAD […] alone or + AcPyr 2 mM / Vacor 0.5 mM / Na 2 mM
Description: as §1, §3

hSARM1 full length [8] = target: T3, hSARM1 full length; assay: Base exchange reactions at neutral pH (HPLC); assay type: biochemical; settings: hSARM1 full length, no trigger; NAD […] alone or + AcPyr 2 mM / Vacor 0.5 mM / Na 2 mM; pH 7.5
Description: as §1, §3

Structure (SMILES): NC(=O)c1ccc[n+]([C@@H]2O[C@H](COP(=O)([O-])OP(=O)(O)OC[C@H]3O[C@@H](n4cnc5c(N)ncnc54)[C@H](O)[C@@H]3O)[C@@H](O)[C@H]2O)c1 [NAD, nicotinamide adenine dinucleotide]
- rate [1]: 14712 ±399 mU/mg
- cyclization, share of NAD consumption [2]: > 98%
- specific activity, basal NADase (hydrolysis or cyclization combined) ([2]; saturating NAD): ~50 U/mg
- hydrolysis, share of NAD consumption (hCD38 [3]; hCD38): > 98%
- specific activity, basal NADase (hydrolysis or cyclization combined) (hCD38 [3]; hCD38, saturating NAD): ~7 U/mg
- Ki (hSARM1 full length [4]; SARM1, read-out: Kia): ~300 µM
- cyclization, share of total substrate consumption (hSARM1 full length [4]; hSARM1, no free pyridines): ~10%
- hydrolysis, share of substrate consumption (hSARM1 full length [4]; hSARM1, no free pyridines): ~90%
- specific activity, basal NADase (hydrolysis or cyclization combined) (hSARM1 full length [4]; hSARM1, saturating NAD): ~0.02 U/mg
- basal rate (hSARM1 full length [4]; hSARM1 full length 14.6 µg/ml, 30 min, 25 °C (Figure S2)): 15.8 mU/mg
- Kis (catalytic site) (hSARM1 full length [4]; hSARM1 full length +NMN 5μM, n=1): >8000 µM
- Ki (hSARM1 full length [4]; hSARM1 full length +NMN 5μM, n=1, read-out: Kia (allosteric site)): 385 µM
- Kis (catalytic site) (hSARM1 full length [4]; hSARM1 full length +NMN 10μM, n=1): >8000 µM
- Ki (hSARM1 full length [4]; hSARM1 full length +NMN 10μM, n=1, read-out: Kia (allosteric site)): 415 µM
- Kis (catalytic site) (hSARM1 full length [4]; hSARM1 full length +NMN 20μM, n=1): >8000 µM
- Ki (hSARM1 full length [4]; hSARM1 full length +NMN 20μM, n=1, read-out: Kia (allosteric site)): 787 µM
- Kis (catalytic site) (hSARM1 full length [4]; hSARM1 full length +NMN 50μM, n=1): >8000 µM
- Ki (hSARM1 full length [4]; hSARM1 full length +NMN 50μM, n=1, read-out: Kia (allosteric site)): 1200 µM
- basal rate (hSARM1 full length [4]; hSARM1 full length WT 5.4 µg/ml, 6 hours, 25 °C (Figure S3)): 26.4 mU/mg
- Kis (inhibition, catalytic site on TIR domain) (hSARM1 full length [4]; hSARM1 full length, no NMN): >8000 µM
- Ki (hSARM1 full length [4]; hSARM1 full length, no NMN, read-out: Kia (inhibition, allosteric site on ARM domain)): 324 ± 24.6 µM
- NAD concentration at maximum NADase activity (hSARM1 full length [4]; hSARM1 full length, activity falls to almost zero at 4 mM): 0.25 mM
- rate (hSARM1 SAM-TIR [5]): 342.4 ±56.3 mU/mg
- Kis (inhibition, catalytic site) (hSARM1 SAM-TIR [6]): >8000 µM
- rate (hCD38 [7]): 7798 ±1624 mU/mg
- rate (hSARM1 full length [8]): 21.8 ±0.30 mU/mg
